Broadly, the IC50 is the concentration needed to halve the response being measured.

The subject of data set [1] is T47D. Put plainly: Antiproliferative activity against human T47D cells at 100 ug/ml after 48 hrs by BrdUrd incorporation assay. As to conditions: read-out: GI. In kind it is functional.
For data set [2], the system named is HeLa. Nature of the data set: Antiproliferative activity against human HeLa cells at 100 ug/ml after 24 hrs by BrdUrd incorporation assay. The class given is functional. The following applies: read-out: GI.
The subject of data set [3] is A549. Put plainly: Antiproliferative activity against human A549 cells at 100 ug/ml after 24 hrs by BrdUrd incorporation assay. As to conditions: A549, 24 h, read-out: GI. The class given is functional.
Data set [4] can be described thus: Antiproliferative activity against African green monkey Vero cells at 100 ug/ml after 72 hrs by BrdUrd incorporation assay. The class given is cell-based. The following applies: chlorocebus sabaeus, read-out: GI.
The test system of data set [5] is A549. Nature of the data set: Antiproliferative activity against human A549 cells at 100 ug/ml after 72 hrs by BrdUrd incorporation assay. The class given is functional. As to conditions: A549, 72 h, read-out: GI.
Data set [6] in a line: Antiproliferative activity against African green monkey Vero cells at 100 ug/ml after 48 hrs by BrdUrd incorporation assay. In kind it is cell-based. As to conditions: chlorocebus sabaeus, read-out: GI.
Data set [7] relates to T47D. Nature of the data set: Antiproliferative activity against human T47D cells at 100 ug/ml after 24 hrs by BrdUrd incorporation assay. In kind it is functional. As to conditions: read-out: GI.
In data set [8] the test system is Vero. Put plainly: Antiproliferative activity against African green monkey Vero cells at 100 ug/ml after 24 hrs by BrdUrd incorporation assay. The following applies: chlorocebus sabaeus. In kind it is cell-based.
Data set [9] deals with A549. Put plainly: Antiproliferative activity against human A549 cells at 100 ug/ml after 48 hrs by BrdUrd incorporation assay. In kind it is functional. As to conditions: A549, 48 h, read-out: GI.
The subject of data set [10] is HeLa. Put plainly: Antiproliferative activity against human HeLa cells at 100 ug/ml after 48 hrs by BrdUrd incorporation assay. As to conditions: read-out: GI. The class given is functional.
In data set [11] the test system is T47D. Put plainly: Antiproliferative activity against human T47D cells at 100 ug/ml after 72 hrs by BrdUrd incorporation assay. The class given is functional. The following applies: read-out: GI.
Data set [12] relates to HeLa. Nature of the data set: Antiproliferative activity against human HeLa cells at 100 ug/ml after 72 hrs by BrdUrd incorporation assay. As to conditions: read-out: GI. The class given is functional.
For data set [13], the system named is TOV112D. Put plainly: Antiproliferative activity against human TOV112D cells after 48 hrs by BrdUrd incorporation assay. In kind it is functional, cell-based.
The test system of data set [14] is T47D. Put plainly: Induction of apoptosis in human T47D cells at 10 ug/ml after 72 hrs by fluorescence microscopic analysis. The class given is functional, cell-based.
Data set [15] relates to T47D. Nature of the data set: Antiproliferative activity against human T47D cells after 72 hrs by BrdUrd incorporation assay. In kind it is functional, cell-based.
For data set [16], the system named is T47D. Put plainly: Antiproliferative activity against human T47D cells at 50 ug/ml after 48 hrs by BrdUrd incorporation assay. As to conditions: read-out: GI. The class given is functional.
The subject of data set [17] is A549. Nature of the data set: Antiproliferative activity against human A549 cells after 48 hrs by BrdUrd incorporation assay. In kind it is functional, cell-based. The following applies: A549, 48 h.
Data set [18] concerns Vero. Put plainly: Induction of apoptosis in African green monkey Vero cells at 10 ug/ml after 72 hrs by fluorescence microscopic analysis. In kind it is functional, cell-based. The following applies: Chlorocebus sabaeus.
The subject of data set [19] is TOV112D. Put plainly: Antiproliferative activity against human TOV112D cells after 24 hrs by BrdUrd incorporation assay. In kind it is functional, cell-based.
The test system of data set [20] is A549. Put plainly: Antiproliferative activity against human A549 cells at 50 ug/ml after 72 hrs by BrdUrd incorporation assay. As to conditions: A549, 72 h, read-out: GI. In kind it is functional.
Data set [21] concerns T47D. Put plainly: Antiproliferative activity against human T47D cells after 24 hrs by BrdUrd incorporation assay. In kind it is functional, cell-based.
Data set [22] deals with Vero. Nature of the data set: Antiproliferative activity against African green monkey Vero cells at 50 ug/ml after 24 hrs by BrdUrd incorporation assay. The class given is cell-based. The following applies: chlorocebus sabaeus.
The subject of data set [23] is TOV112D. Nature of the data set: Antiproliferative activity against human TOV112D cells at 50 ug/ml after 24 hrs by BrdUrd incorporation assay. In kind it is functional. As to conditions: read-out: GI.
In data set [24] the test system is TOV112D. Nature of the data set: Antiproliferative activity against human TOV112D cells at 50 ug/ml after 48 hrs by BrdUrd incorporation assay. In kind it is functional. The following applies: read-out: GI.
Data set [25] relates to HeLa. Put plainly: Antiproliferative activity against human HeLa cells after 72 hrs by BrdUrd incorporation assay. The class given is functional, cell-based.
The subject of data set [26] is HeLa. Nature of the data set: Antiproliferative activity against human HeLa cells at 50 ug/ml after 48 hrs by BrdUrd incorporation assay. The class given is functional. As to conditions: read-out: GI.
Data set [27] can be described thus: Antiproliferative activity against African green monkey Vero cells at 50 ug/ml after 48 hrs by BrdUrd incorporation assay. The following applies: chlorocebus sabaeus, read-out: GI. In kind it is cell-based.
For data set [28], the system named is T47D. Put plainly: Induction of necrosis in human T47D cells at 10 ug/ml after 72 hrs by fluorescence microscopic analysis. In kind it is functional, cell-based.
Data set [29] concerns Vero. Put plainly: Antiproliferative activity against African green monkey Vero cells after 72 hrs by BrdUrd incorporation assay. The class given is cell-based. The following applies: Chlorocebus sabaeus.
Data set [30] relates to A549. Nature of the data set: Antiproliferative activity against human A549 cells at 50 ug/ml after 24 hrs by BrdUrd incorporation assay. The class given is functional. As to conditions: A549, 24 h, read-out: GI.
Data set [31] deals with A549. Put plainly: Antiproliferative activity against human A549 cells after 72 hrs by BrdUrd incorporation assay. The class given is functional, cell-based. The following applies: A549, 72 h.
Data set [32] relates to HeLa. Put plainly: Induction of necrosis in human HeLa cells at 10 ug/ml after 72 hrs by fluorescence microscopic analysis. In kind it is functional.
Data set [33] has as its system HeLa. Put plainly: Antiproliferative activity against human HeLa cells at 50 ug/ml after 72 hrs by BrdUrd incorporation assay. As to conditions: read-out: GI. The class given is functional.
Data set [34] relates to TOV112D. Nature of the data set: Antiproliferative activity against human TOV112D cells at 50 ug/ml after 72 hrs by BrdUrd incorporation assay. The class given is functional. The following applies: read-out: GI.
Data set [35] has as its system A549. Nature of the data set: Antiproliferative activity against human A549 cells at 50 ug/ml after 48 hrs by BrdUrd incorporation assay. The following applies: A549, 48 h, read-out: GI. The class given is functional.
Data set [36] is described as follows: Antiproliferative activity against African green monkey Vero cells at 50 ug/ml after 72 hrs by BrdUrd incorporation assay. The class given is cell-based. The following applies: chlorocebus sabaeus, read-out: GI.
Data set [37] concerns Vero. Put plainly: Antiproliferative activity against African green monkey Vero cells after 48 hrs by BrdUrd incorporation assay. The class given is cell-based. As to conditions: Chlorocebus sabaeus.
Data set [38] concerns T47D. Nature of the data set: Antiproliferative activity against human T47D cells after 48 hrs by BrdUrd incorporation assay. The class given is functional, cell-based.
Data set [39] relates to T47D. Put plainly: Antiproliferative activity against human T47D cells at 50 ug/ml after 24 hrs by BrdUrd incorporation assay. The following applies: read-out: GI. In kind it is functional.
Data set [40] concerns HeLa. Nature of the data set: Antiproliferative activity against human HeLa cells after 48 hrs by BrdUrd incorporation assay. The class given is functional, cell-based.
Data set [41] deals with Vero. Nature of the data set: Antiproliferative activity against African green monkey Vero cells after 24 hrs by BrdUrd incorporation assay. The class given is cell-based. The following applies: chlorocebus sabaeus.
For data set [42], the system named is HeLa. Put plainly: Antiproliferative activity against human HeLa cells at 50 ug/ml after 24 hrs by BrdUrd incorporation assay. In kind it is functional. The following applies: read-out: GI.
For data set [43], the system named is A549. Nature of the data set: Antiproliferative activity against human A549 cells after 24 hrs by BrdUrd incorporation assay. The following applies: A549, 24 h. The class given is functional, cell-based.
For data set [44], the system named is Vero. Put plainly: Induction of necrosis in African green monkey Vero cells at 10 ug/ml after 72 hrs by fluorescence microscopic analysis. In kind it is functional, cell-based. As to conditions: Chlorocebus sabaeus.
Data set [45] has as its system HeLa. Nature of the data set: Antiproliferative activity against human HeLa cells after 24 hrs by BrdUrd incorporation assay. The class given is functional, cell-based.
The subject of data set [46] is HeLa. Put plainly: Induction of apoptosis in human HeLa cells at 10 ug/ml after 72 hrs by fluorescence microscopic analysis. In kind it is functional.
Data set [47] has as its system TOV112D. Put plainly: Antiproliferative activity against human TOV112D cells after 72 hrs by BrdUrd incorporation assay. In kind it is functional, cell-based.
Data set [48] has as its system T47D. Put plainly: Antiproliferative activity against human T47D cells at 50 ug/ml after 72 hrs by BrdUrd incorporation assay. In kind it is functional. As to conditions: read-out: GI.

Activity calls are given as the source filed them. The calls are words filed in the database; no cut-off is given here. Bounds are passed on as bounds.

As for `Nc1nc2[nH]cc(CCc3ccc(C(=O)N[C@@H](CCC(=O)O)C(=O)O)cc3)c2c(=O)[nH]1` [PEMETREXED], the inhibition of growth at 100 µg/mL in the data set on T47D [1] is 20%; in the data set with HeLa [2] it was 5%; in the data set on A549 [3], 10%; with A549 [5], 50%; in the data set on T47D [7], 10%; in the data set on A549 [9] it was 30%. The inhibition of growth at 100 µg/mL in the data set on HeLa [10] amounted to 10%; in the data set on T47D [11], 30%; with HeLa [12], 20%. Also, the inhibition at 72 h, 100 ug/ml in data set [4] was determined as 20%. Moreover, the inhibition at 48 h, 100 ug/ml in [6] was found to be 10%. The “growth inhibition (GI)” value with Vero [8] was 5%.

Turning to `O=c1c(-c2cccs2)nnc2n1CCN2c1ccc(Cl)c(Cl)c1`, the IC50 in the data set with TOV112D [13] is 70 µM; in the data set with T47D [15], 70 µM; with A549 [17], 70 µM; in the data set on TOV112D [19] it was 80 µM; with T47D [21] it was 80 µM; with HeLa [25], 70 µM. Also, the IC50 in the data set on Vero [29] was 80 µM; in the data set on A549 [31] it was 70 µM; with Vero [37], 140 µM; in the data set on T47D [38], 70 µM; in the data set on HeLa [40], 80 µM; in the data set on Vero [41], > 140 µM. In addition, the IC50 in the data set on A549 [43] turned out to be 80 µM; in the data set with HeLa [45], 140 µM; in the data set on TOV112D [47] it was 70 µM. For the same compound, the outcome with T47D [14], in the data set on Vero [18], with T47D [28] and in the data set on Vero [44] was Active. The inhibition of growth at 50 µg/mL in the data set with T47D [16] worked out at 100%; in the data set with A549 [20], 100%; with TOV112D [23], 90%; in the data set on TOV112D [24], 100%; with HeLa [26] it was 90%; in the data set with A549 [30] it was 90%. The inhibition of growth at 50 µg/mL in the data set with HeLa [33] is 100%; in the data set on TOV112D [34] it was 100%; in the data set on A549 [35] it was 100%; in the data set on T47D [39], 90%; with HeLa [42], 50%; in the data set on T47D [48] it was 100%. Also, in the data set with Vero [22], the “growth inhibition (GI)” value worked out at 25%. Moreover, the inhibition at 48 h, 50 ug/ml in [27] was found to be 50%. The Activity with HeLa [32] turned out to be 95%; with HeLa [46], 5%. For the same compound, the inhibition at 72 h, 50 ug/ml in data set [36] worked out at 90%.

Source of the values: ChEMBL document CHEMBL3596165, “Synthesis, structure elucidation and identification of antiproliferative activities of a novel class of thiophene bioisosteres bearing the privileged 7,8-dihydroimidazo[2,1-c][1,2,4]triazin-4(6H)-one scaffold” (Bioorg Med Chem, 2015).
